Results from US20090156662A1, “Fat Absorption Inhibitor” (ITO EN, LTD., priority 2006, published 2009).

Experiments:
[1] = Micellar cholesterol release: cholesterol remaining in bile acid micelles after incubation with test substance, filtration and GC; details: for micellar cholesterol concentration: Embodiment 4, same method as Embodiment 1, FIG. 5
Procedure: Prepared were micelles composed of 0.5 mM of cholesterol, 6.6 mM of sodium taurocholate, 0.6 mM of phosphatidyl choline of egg yolk origin, 132 mM of sodium chloride (NaCl) and 15 mM of sodium phosphate (NaH2PO4.2H2O). The micelles were incubated for 24 hours at 37° C. for stabilizing the micelles. Then 0.1 mL solution of each theaflavin (manufactured by Nagara Science Co.) was added to each of 3 mL portions of the micelles in such a manner that their concentrations were to be respectively 0 μg, 200 μg and 800 μg to 1 mL of the micelles, which were then incubated at 37° C. for 1 hour. After that, each of solutions was filtered through a 220 nm filter (manufactured by Whatman Co.) to obtain a clear micelle solution. Cholesterol was extracted from each micelle solution obtained, and the concentration of cholesterol remained in the micelles was measured using a gas chromatograph (manufactured by Shimadzu Corp.) using 5α-cholestane as an internal standard.
(§1) Prepared were micelles composed of 0.5 mM of cholesterol (manufactured by Sigma Co.), 6.6 mM of sodium taurocholate (manufactured by Nacalai Tesque Inc.), 0.6 mM of phosphatidyl choline from egg yolk (manufactured by Sigma Co.), 132 mM of sodium chloride (NaCl, manufactured by Nacalai Tesque Inc.) and 15 mM of sodium phosphate (NaH2PO4.2H2O, manufactured by Nacalai Tesque Inc.). The micelles were incubated at 37° C. for 24 hours for stabilization. Then 0.1 mL solution of the theaflavins formulation (manufactured by Funakoshi Corp.) was added to each of 3 mL portions of the micelles in such a manner that their concentrations were respectively 0 μg, 200 μg and 800 μg to 1 mL micelles, and the solutions were incubated at 37° C. for 1 hour (n=3). Each solution was filtered through a 220 nm filter to obtain a clear solution. Cholesterol was extracted from each micelle solution, and cholesterol remained in the micelle was measured with a gas chromatograph (manufactured by Shimadzu Corp.) using 5α-cholestane as an internal standard.
Next, micelles for test were prepared (pH 6.8) at a composition of 0.5 mM of cholesterol, 6.6 mM of sodium taurocholate, 0.6 mM of egg yolk phosphatidyl choline, 132 mM of sodium chloride (NaCl) and sodium phosphate (NaH2PO4.2H2O), and the micelles were incubated at 37° C. for 24 hours for stabilization. […]

[2] = Concentration of bile acid in the micelle solution by the enzymatic method (Eaton et al.); details: Embodiment 3; FIG. 4
Procedure: as §1
Moreover, the concentration of bile acid was measured by the enzymatic method in accordance with the process of Eaton et al (Eaton, D. L. et al., Proc. Soc. Exp. Biol. Med. 1976, January; 151(1): 198-202).

[3] = Micellar cholesterol release: cholesterol remaining in bile acid micelles after incubation with test substance, filtration and GC; details: for concentration of cholesterol in the micelles / concentration of micellar cholesterol relative to the case using theaflavin or theaflavin digallate: Embodiment 1; for concentration of cholesterol in the micelles: amount of addition raised up to 0.5 mM, incubated 37° C. 1 hour, FIG. 1; for concentration of micellar cholesterol relative to the case using theaflavin or theaflavin digallate: at an amount of 0.5 mM addition

| concentration of micellar cholesterol relative to the case using theaflavin or theaflavin digallate [3] | SMILES | micellar cholesterol concentration [1] | concentration of cholesterol in the micelles [3] | further results |
| --- | --- | --- | --- | --- |
| – | O=C(O[C@@H]1Cc2c(O)cc(O)cc2O[C@@H]1c1ccc(O)c(O)c1)c1cc(O)c(O)c(O)c1 [epicatechin gallate] | little effect | – | – |
| – | O=C(O[C@@H]1Cc2c(O)cc(O)cc2O[C@@H]1c1cc(O)c(O)c(O)c1)c1cc(O)c(O)c(O)c1 [epigallocatechin gallate] | decreased | – | concentration of cholesterol in the micelles ([1]; Embodiment 3, 0, 200 and 800 μg to 1 mL micelles, 37° C. 1 hour, n=3, FIG. 3): decreased; effect on the concentration of bile acid [2]: did not show any effect |
| – | O=C(O[C@@H]1Cc2c(O)cc(O)cc2O[C@@H]1c1cc(O)c(=O)c2c(O)c(O)cc([C@H]3Oc4cc(O)cc(O)c4C[C@H]3OC(=O)c3cc(O)c(O)c(O)c3)c2c1)c1cc(O)c(O)c(O)c1 [theaflavin-3,3′-digallate] | little effect | did not change | micelle formation inhibitory effect ([3]; Embodiment 2, amount of addition increased up to 2 mmol/L, FIG. 2): excellent micelle formation inhibitory effect; cholesterol decreasing effect ([3]; Embodiment 2, amount of addition up to 1 mmol/L, FIG. 2): relatively gentle |
| decreased about twice | O=C(O[C@@H]1Cc2c(O)cc(O)cc2O[C@@H]1c1cc(=O)c(O)c2c(O)c(O)cc([C@H]3Oc4cc(O)cc(O)c4C[C@H]3O)c2c1)c1cc(O)c(O)c(O)c1 [theaflavin-3-monogallate] | – | decreased in a manner dependent on the amount of addition | – |
| decreased about twice | O=C(O[C@@H]1Cc2c(O)cc(O)cc2O[C@@H]1c1cc(O)c(O)c2c(=O)c(O)cc([C@H]3Oc4cc(O)cc(O)c4C[C@H]3O)cc12)c1cc(O)c(O)c(O)c1 [theaflavin-3′-monogallate] | – | decreased in a manner dependent on the amount of addition | – |
| – | O=c1c(O)cc([C@H]2Oc3cc(O)cc(O)c3C[C@H]2O)cc2c([C@H]3Oc4cc(O)cc(O)c4C[C@H]3O)cc(O)c(O)c12 [theaflavin] | – | did not change | – |
